Test results taken from patent US12599602B2, “Methods for treating cholestasis” (Mirum Pharmaceuticals, Inc., priority 2019, dated 2026).
“And” between values parts separate entries of the source, which are not always exact repeats. Equal values may be shown once. Read-outs that look alike come from different tables or passages of the source.

Columns and labels:
[1] = system: Children with Progressive Familial Intrahepatic Cholestasis; test: INDIGO phase 2 open-label efficacy and safety clinical study of maralixibat in PFIC; assay type: in vivo, human; conditions: for 7αC4:sBA ratio: high-dose responder
[2] = system: Children with Alagille Syndrome
Procedure: Children aged 1-18 years with a diagnosis of ALGS and evidence of cholestasis were eligible to enroll in the ICONIC clinical study, see Tables 12-14. During a long-term extension, participants with sBA levels above the upper limit of normal and/or an ITCHRO(OBS) score >1.5 were eligible for the 400 μg/kg BID dose (all participants received the 400 μg/kg BID dose). Inclusion criteria for the ICONIC study included having cholestasis, which was defined as at least one of 1) sBA concentration (total sBA) >3× the upper limit of normal, 2) serum conjugated bilirubin concentration >1 mg/dL, 3) fat-soluble vitamin deficiency not otherwise explained, 4) serum gamma-glutamyl transferase concentration >3× the upper limit of normal, and 3) intractable pruritus explainable only by liver disease. Inclusion criteria also included having significant pruritus, which was defined as an average daily score of >2 on the ITCHRO(OBS) scale for 2 consecutive weeks (0=no pruritus; 4=most severe pruritus). Exclusion criteria included having surgically disrupted enterohepatic circulation, a liver transplant, decompensated cirrhosis, or having any liver disease other than ALGS.
sBA responders were defined as those patients achieving ≥50% reduction from baseline in sBA at week 12 or 18. ITCHRO responders were defined as those patients achieving at least a 1-point reduction from Baseline in weekly morning ITCHRO(OBS) score at week 12 or 18.
In the open label extension, the effect of higher doses was explored by increasing dosage to a maximum of 400 μg/kg BID in eligible participants.
Efficacy assessments were based on changes from baseline in sBA concentration, weekly average ITCHRO(OBS) scores (0, none; 4, most severe), CSS score (0, none; 4 most severe), and Clinician Xanthoma Scale score (0, none; 4, disabling). […] During the long-term extension, efficacy assessments were conducted every 12 weeks. Serum total cholesterol and serum 7αC4 concentration were also monitored during the ICONIC clinical study, among other measures.
sBA were measured using a fully validated liquid chromatography-electrospray ionization-mass electrospray (LC-ESI-MS) method using stable-isotope dilution analysis to measure serum concentrations of principal bile acids (cholic, chenodeoxycholic, ursodeoxycholic, deoxycholic acid, lithocholic, and their corresponding glycine and taurine conjugates). Serum samples were analyzed in the Division of Pathology and Laboratory Medicine, Cincinnati Children's Hospital Medical Center according to SOP #PATH.CMS.1033. Calibration standards of individual bile acids were in the range of 50-25,000 ng/mL and Quality Control samples were prepared at concentrations of 100, 500, 1000, 2500, and 20000 ng/mL. The intra- and inter-assay imprecision of the method for individual bile acids measured was within the accepted GLP quality assurance guidelines of <15% coefficient of variance for these QC samples. The lower limit of quantification of the assay was set at 100 ng/mL and the imprecision at this concentration was <20%. The limit of detection of the assay was 5 ng/mL. Total sBA is represented by the sum of the individual bile acid species measured.

[3] = Withdrawal-Week 22, Maralixibat group

## maralixibat
[1]; all PFIC 1 patients and all patients harboring a truncating ABCB11 mutation
  multi-parameter response: not multi-parameter responders
[1]; all low-dose responders, e.g. within 2-6 months of first administration
  serum ALT, AST, and bilirubin concentrations over time: normalized or only mildly elevated concentrations
[1]; all low-dose responders, within 13 weeks of first administration
  increase in C4 levels relative to baseline: at least 2.5 fold
[1]; high dose responder, following treatment response on sBA
  height Z-score: increase in height Z-score
[1]; prior to administration of 560 μg/kg/day
  7αC4:sBA ratio: 12 times baseline
[1]; upon administration of the higher dose (560 μg/kg/day)
  7αC4:sBA ratio: 1770 times baseline
[1]; low-dose responder losing response in long-term extension, 280 μg/kg BID from between 640 and 730 days
  cholestasis markers after administration of the higher dose: sBA concentration decreased, severity of pruritus decreased, serum 7αC4 concentration increased, and 7αC4:sBA ratio increased
[1]; low-dose responder with sBA increase in long-term extension, 280 μg/kg BID from between 820 and 910 days
  pruritus after administration of the higher dose: severity of pruritus subsequently decreased
[1]; low-dose responders
  7αC4 concentrations at 48 weeks: 14 × baseline
  growth (height Z-score change relative to baseline): improved growth relative to baseline
  mean change from baseline at week 48 in 7αC4:sBA ratio: 1388 times baseline ratio
[1]; mild PFIC 2 patients, 280 μg/kg QD
  multi-parameter responder: 1 of 7
[1]; moderate PFIC 2 patients, 280 μg/kg/day by week 48
  responders: 5 of 12
[1]; moderate PFIC 2 patients, responsive only after 280 μg/kg twice daily
  high-dose responder: 1 of 12
[1]; non-responders
  7αC4 concentrations at 48 weeks: 1.8 × baseline
  growth (height Z-score change relative to baseline): did not
  mean change from baseline at week 48 in 7αC4:sBA ratio: 1.9 times baseline ratio
[1]; non-truncating BSEP mutations
  patients with ≥1.0 pt. reduction in ITCHRO(OBS) score: 10/19
[1]; responders
  duration of maintained response: for over a year and for up to or beyond 5 years
[1]; responders (n = 6) by week 48
  ItchRO score, n: Improved by ≥1.0 points from baseline: 4
  ItchRO score, n: Zero (no pruritus): 2
  sBA levels, n: Normalized (±≤8.5 μmol/L): 4
  sBA levels, n: Reduced by ≥70% or ≥80% from baseline: 2
[1]; three non-truncating PFIC 2 patients without response at 280 μg/kg/day given 560 μg/kg/day
  patients responding at the higher dose: one
[1]; week 48
  ALT, change from baseline to week 48, mean: −12 UI/L
  C4, change from baseline to week 48, mean: +6.0 ng/mL
  ItchRO(Obs) score, change from baseline to week 48, mean: −1.0
  PedsQL total score, change from baseline to week 48, mean: +8.2
  Total bilirubin, change from baseline to week 48, mean: +0.8 mg/dL
  sBA, change from baseline to week 48, mean: -32 µmol/L
[2]; 400 μg/kg QD then 400 μg/kg BID
  weight Z-scores: dose-dependent increase in weight Z-scores
[2]; ITCHRO(OBS) weekly morning average score, one line per Subject ID (Table 18)
  Change in ItchRO from Baseline to Week 48: 0.49 and −0.45 and 1.29 and −3.86 and 0.00 and −2.57 and −1.86 (2×) and −1.71 (2×) and −1.00 (2×) and −1.29 and −1.67 and −1.14 and −1.03 and −3.29 (2×) and −3.43 and −2.50 and −2.71 (2×) and −3.50 and −2.29 and −0.17 and −1.43 and −0.83 and −0.12
[2]; Normalization (<8.5 μmol/L)
  sBA response, Week 48 (N = 28) n (%): 1 (3.6%)
[2]; Open-label Week 18
  ItchRO (Obs) responders, Decrease from baseline ≥1: 67.7%
  ItchRO (Obs) responders, Decrease from baseline ≥1.25: 58.1%
  ItchRO (Obs) responders, Decrease from baseline ≥1.5: 51.6%
[2]; Open-label Week 48
  ItchRO (Obs) responders, Decrease from baseline ≥1: 72.4%
  ItchRO (Obs) responders, Decrease from baseline ≥1.25: 58.6%
  ItchRO (Obs) responders, Decrease from baseline ≥1.5: 51.7%
[2]; Week 48, n = 15
  C4, Mean: 20.4 ng/mL
  Serum cholesterol, Mean: 340.3 mg/dL
[2]; Week 191, n = 15
  C4, Mean: 30.4 ng/mL
  Serum cholesterol, Mean: 277.5 mg/dL
[2]; [3]
  ItchRO (Obs) responders, Decrease from baseline ≥1: 53.8%
  ItchRO (Obs) responders, Decrease from baseline ≥1.25: 46.2%
  ItchRO (Obs) responders, Decrease from baseline ≥1.5: 23.1%
[2]; after 98 weeks, across participants
  study days with minimal or no pruritus (ITCHRO(OBS)≤1): over 89%
[2]; all participants by week 48
  Clinician xanthoma scale scores: improved significantly
[2]; at 191 weeks
  CSS score, mean reduction: 2.4 points
  ITCHRO(OBS) score, mean change from baseline: −2.5
  sBA levels, reduction from baseline: about 57%
[2]; at 193 weeks
  ITCHRO(OBS) final score: about 0.33
  ITCHRO(OBS) score, mean reduction: over 2 points
[2]; by week 48, all participants
  CSS final average score: about 1.5
  CSS scores, average decrease: over 1.5 points
[2]; by week 191
  Clinician Xanthoma Score, reduction from baseline: 0.7 points
[2]; by week 193 (second statement of b611)
  ITCHRO(OBS) scores, average decrease relative to baseline: over 1.5 points
[2]; core study and extension
  PedsQL Multidimensional Fatigue Scale scores: Improvements
[2]; core study and extension, over three years
  tolerability: well tolerated
